Results: US11572590B2, “Methods for evaluating tumor cell spheroids using 3D microfluidic cell culture device” (Dana-Farber Cancer Institute, Inc., priority 2017, dated 2023)
Read-outs that look alike come from different tables or passages of the source.

Assays:
Assay in all cases: SelectScreen Kinase Profiling, single point inhibition and IC50 for off-target kinases
Assay type in all cases: biochemical
off-target kinases [1] = target: off-target kinases (Homo sapiens, UniProt Q9NYY3); conditions: PLK2, ATP Km app, ZLYTE
off-target kinases [2] = target: off-target kinases (Homo sapiens, UniProt Q96RG2); conditions: PASK, ZLYTE, ATP Km app
off-target kinases [3] = target: off-target kinases (Homo sapiens, UniProt P43405); conditions: SYK, 1000 μM, ATP Km app, ZLYTE
off-target kinases [4] = target: off-target kinases (Homo sapiens, UniProt P00519, Y253F); conditions: ABL1 Y253F, ATP Km app, ZLYTE
off-target kinases [5] = target: off-target kinases (Homo sapiens, UniProt Q96GD4); conditions: AURKB (Aurora B), ATP Km app, ZLYTE
off-target kinases [6] = target: off-target kinases (Homo sapiens, UniProt P42336); conditions: PIK3CA/PIK3R1 (p110 alpha/p85 alpha); Cmpd1 1000 μM; ATP Km app; Adapta
off-target kinases [7] = target: off-target kinases (Homo sapiens, UniProt Q5S007, I2020T); conditions: LRRK2 I2020T, ATP Km app, Adapta
off-target kinases [8] = target: off-target kinases (Homo sapiens, UniProt Q5S007); conditions: ATP Km app, Adapta
off-target kinases [9] = target: off-target kinases (Homo sapiens, UniProt Q16620); conditions: NTRK2 (TRKB), ZLYTE, ATP Km app
off-target kinases [10] = target: T1, off-target kinases (Homo sapiens, UniProt P43403); conditions: ZAP70, ZLYTE, ATP Km app
T1 sequence (P43403 1-619): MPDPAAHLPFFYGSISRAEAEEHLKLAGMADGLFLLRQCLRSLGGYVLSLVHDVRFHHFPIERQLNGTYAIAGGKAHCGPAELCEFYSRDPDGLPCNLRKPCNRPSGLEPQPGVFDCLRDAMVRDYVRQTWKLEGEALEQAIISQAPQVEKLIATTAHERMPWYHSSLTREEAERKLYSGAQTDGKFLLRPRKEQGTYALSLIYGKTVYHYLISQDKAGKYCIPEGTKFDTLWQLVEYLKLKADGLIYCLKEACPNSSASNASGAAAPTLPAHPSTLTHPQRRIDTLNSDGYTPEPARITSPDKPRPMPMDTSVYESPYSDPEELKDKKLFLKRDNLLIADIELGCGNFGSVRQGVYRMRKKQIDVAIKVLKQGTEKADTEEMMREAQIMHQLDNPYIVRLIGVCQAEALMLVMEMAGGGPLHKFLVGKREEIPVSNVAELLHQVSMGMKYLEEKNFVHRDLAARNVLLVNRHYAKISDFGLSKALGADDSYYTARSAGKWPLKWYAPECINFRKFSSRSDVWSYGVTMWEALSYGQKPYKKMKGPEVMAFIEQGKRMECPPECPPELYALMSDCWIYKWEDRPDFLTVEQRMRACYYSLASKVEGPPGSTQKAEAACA

Sequence of off-target kinases (Homo sapiens, UniProt Q5S007, I2020T) (Q5S007 whole entry I2020T): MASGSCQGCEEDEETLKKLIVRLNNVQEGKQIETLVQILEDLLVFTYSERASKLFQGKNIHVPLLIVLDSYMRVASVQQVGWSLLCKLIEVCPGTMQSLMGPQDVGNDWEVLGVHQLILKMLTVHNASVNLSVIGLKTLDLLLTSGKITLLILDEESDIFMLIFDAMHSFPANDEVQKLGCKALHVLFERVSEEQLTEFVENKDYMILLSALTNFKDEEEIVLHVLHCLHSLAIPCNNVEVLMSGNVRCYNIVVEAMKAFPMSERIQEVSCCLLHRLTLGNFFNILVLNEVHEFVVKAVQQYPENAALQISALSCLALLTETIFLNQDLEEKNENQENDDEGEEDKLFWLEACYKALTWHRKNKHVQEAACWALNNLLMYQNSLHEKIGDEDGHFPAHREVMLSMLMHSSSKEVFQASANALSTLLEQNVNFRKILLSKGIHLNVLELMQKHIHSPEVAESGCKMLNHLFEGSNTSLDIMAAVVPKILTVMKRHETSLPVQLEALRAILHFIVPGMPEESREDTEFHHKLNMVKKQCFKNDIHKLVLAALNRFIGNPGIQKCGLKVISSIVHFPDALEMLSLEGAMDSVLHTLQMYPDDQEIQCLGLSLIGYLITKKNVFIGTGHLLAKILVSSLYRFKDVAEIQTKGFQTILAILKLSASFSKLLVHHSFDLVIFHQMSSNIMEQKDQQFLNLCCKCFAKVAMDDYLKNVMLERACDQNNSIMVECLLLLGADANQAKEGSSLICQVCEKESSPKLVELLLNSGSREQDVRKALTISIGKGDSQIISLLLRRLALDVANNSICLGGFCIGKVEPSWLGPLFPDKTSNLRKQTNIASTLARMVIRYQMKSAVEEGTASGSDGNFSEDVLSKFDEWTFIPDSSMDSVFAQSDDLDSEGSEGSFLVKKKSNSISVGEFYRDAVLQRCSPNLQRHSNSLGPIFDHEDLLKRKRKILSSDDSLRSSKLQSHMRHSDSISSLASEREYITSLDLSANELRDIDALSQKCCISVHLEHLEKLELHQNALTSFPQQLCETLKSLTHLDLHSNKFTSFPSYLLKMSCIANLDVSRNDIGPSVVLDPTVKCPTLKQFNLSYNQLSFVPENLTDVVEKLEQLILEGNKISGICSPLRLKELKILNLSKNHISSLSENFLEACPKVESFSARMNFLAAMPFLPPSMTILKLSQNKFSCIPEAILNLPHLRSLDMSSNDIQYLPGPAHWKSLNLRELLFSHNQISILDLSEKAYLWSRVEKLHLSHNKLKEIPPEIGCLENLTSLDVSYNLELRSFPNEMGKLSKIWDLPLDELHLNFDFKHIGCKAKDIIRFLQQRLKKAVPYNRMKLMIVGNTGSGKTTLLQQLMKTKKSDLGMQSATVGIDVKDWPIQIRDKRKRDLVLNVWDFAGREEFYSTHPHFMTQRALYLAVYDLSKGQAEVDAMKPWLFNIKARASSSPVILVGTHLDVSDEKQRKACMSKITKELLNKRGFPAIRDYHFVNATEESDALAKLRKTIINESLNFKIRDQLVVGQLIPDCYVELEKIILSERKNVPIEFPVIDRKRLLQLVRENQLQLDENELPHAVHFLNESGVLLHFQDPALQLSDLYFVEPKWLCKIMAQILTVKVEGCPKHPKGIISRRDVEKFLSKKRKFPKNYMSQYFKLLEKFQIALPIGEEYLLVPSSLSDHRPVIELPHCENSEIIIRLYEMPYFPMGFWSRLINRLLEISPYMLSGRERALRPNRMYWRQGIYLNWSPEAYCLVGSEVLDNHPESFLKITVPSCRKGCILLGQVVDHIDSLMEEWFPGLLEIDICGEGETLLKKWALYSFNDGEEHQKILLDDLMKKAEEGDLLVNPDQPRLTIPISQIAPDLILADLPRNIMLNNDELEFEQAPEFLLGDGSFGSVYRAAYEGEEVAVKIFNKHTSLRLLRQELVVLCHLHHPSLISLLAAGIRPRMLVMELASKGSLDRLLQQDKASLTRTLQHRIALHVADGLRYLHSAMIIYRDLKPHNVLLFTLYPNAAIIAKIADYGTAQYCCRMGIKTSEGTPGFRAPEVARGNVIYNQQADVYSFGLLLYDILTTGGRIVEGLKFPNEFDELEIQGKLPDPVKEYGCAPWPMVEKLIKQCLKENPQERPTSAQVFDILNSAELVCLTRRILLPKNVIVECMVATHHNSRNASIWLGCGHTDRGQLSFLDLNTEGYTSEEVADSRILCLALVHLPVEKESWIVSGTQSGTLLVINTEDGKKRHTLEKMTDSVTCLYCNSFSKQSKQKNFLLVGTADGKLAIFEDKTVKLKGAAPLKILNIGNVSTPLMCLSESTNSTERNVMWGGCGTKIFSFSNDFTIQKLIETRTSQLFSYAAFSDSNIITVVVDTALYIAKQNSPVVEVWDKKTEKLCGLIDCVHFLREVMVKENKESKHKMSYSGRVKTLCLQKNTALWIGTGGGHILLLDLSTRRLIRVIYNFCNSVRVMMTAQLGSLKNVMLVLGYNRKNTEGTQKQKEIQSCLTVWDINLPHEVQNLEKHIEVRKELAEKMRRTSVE
Sequence of off-target kinases (Homo sapiens, UniProt Q16620) (Q16620 32-822): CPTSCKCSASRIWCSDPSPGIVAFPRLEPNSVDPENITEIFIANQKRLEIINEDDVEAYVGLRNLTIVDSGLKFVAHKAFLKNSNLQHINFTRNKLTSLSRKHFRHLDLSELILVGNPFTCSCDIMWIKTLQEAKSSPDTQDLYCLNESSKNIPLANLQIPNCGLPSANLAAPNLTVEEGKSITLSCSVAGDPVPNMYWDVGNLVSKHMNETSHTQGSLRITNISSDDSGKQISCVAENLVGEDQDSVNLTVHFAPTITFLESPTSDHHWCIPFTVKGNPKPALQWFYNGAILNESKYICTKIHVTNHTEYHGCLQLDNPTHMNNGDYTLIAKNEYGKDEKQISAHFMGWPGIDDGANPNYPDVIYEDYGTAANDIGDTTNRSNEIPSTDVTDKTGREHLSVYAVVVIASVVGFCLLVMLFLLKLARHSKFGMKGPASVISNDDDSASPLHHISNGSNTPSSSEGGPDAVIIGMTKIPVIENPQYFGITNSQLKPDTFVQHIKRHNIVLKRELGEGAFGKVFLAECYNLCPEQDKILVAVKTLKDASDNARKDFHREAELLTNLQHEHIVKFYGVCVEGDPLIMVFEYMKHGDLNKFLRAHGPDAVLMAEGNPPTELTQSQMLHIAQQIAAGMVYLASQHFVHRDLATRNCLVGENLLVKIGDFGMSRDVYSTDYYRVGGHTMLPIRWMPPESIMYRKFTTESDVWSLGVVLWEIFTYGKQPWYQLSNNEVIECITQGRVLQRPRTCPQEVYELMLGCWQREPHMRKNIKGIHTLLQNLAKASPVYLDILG
Sequence of off-target kinases (Homo sapiens, UniProt P42336) (P42336 whole entry): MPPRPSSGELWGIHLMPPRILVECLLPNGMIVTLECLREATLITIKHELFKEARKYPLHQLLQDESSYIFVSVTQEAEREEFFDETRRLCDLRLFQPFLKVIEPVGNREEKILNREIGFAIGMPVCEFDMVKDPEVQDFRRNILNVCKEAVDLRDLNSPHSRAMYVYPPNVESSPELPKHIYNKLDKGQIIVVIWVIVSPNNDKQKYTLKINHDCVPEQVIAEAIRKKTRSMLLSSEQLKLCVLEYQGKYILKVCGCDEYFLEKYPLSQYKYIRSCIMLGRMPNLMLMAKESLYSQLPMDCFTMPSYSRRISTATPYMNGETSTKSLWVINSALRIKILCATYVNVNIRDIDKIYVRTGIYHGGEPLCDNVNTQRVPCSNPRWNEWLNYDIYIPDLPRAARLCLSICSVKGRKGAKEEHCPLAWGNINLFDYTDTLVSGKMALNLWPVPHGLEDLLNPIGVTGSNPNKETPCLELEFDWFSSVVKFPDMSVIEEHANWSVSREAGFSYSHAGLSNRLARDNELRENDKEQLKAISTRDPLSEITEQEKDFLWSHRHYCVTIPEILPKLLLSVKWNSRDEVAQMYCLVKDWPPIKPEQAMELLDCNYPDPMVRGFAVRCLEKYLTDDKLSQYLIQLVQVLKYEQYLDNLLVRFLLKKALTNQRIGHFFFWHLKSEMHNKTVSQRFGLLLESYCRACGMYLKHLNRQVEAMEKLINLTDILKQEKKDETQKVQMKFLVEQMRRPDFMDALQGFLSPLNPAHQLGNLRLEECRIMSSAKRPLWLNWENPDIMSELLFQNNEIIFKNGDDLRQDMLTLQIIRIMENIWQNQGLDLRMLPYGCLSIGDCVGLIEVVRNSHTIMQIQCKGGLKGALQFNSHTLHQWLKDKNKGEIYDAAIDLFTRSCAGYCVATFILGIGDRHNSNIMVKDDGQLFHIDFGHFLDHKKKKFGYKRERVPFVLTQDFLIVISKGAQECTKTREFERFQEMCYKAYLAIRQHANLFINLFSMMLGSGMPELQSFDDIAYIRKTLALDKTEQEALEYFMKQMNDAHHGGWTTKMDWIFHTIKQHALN
Sequence of off-target kinases (Homo sapiens, UniProt Q5S007) (Q5S007 whole entry): as the sequence (Q5S007 whole entry I2020T) above, with T2020I counted along it
Sequence of off-target kinases (Homo sapiens, UniProt Q9NYY3) (Q9NYY3 whole entry): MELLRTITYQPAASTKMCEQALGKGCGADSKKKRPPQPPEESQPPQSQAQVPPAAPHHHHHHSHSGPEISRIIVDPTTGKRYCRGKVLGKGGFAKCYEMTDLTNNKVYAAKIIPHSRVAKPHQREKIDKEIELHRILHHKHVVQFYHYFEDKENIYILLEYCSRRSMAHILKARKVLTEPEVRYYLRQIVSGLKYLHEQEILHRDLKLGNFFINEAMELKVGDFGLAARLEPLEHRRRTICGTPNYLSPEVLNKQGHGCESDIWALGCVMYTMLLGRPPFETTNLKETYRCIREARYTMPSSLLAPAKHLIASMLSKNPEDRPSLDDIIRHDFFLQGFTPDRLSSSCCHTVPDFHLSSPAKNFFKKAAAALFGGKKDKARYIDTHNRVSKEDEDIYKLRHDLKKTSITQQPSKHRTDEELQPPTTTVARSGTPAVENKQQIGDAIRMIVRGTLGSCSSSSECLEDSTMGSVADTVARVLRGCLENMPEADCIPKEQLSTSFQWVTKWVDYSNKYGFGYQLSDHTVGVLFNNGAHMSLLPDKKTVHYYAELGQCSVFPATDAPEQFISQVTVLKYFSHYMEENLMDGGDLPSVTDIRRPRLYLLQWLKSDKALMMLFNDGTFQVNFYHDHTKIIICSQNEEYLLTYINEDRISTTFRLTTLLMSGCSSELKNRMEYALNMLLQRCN

Work on N#Cc1cc(-c2ncnc(Nc3ccc(N4CCN(C5COC5)CC4)cc3)n2)ccc1OC1CCOCC1 [Compound 1, 5-(4-((4-(4-(oxetan-3-yl)piperazin-1-yl)phenyl)amino)-1,3,5-triazin-2-yl)-2-((tetrahydro-2H-pyran-4-yl)oxy)benzonitrile] yielded an inhibition (off-target kinases [1]; read-out: % Inhibition 1) of 60%, an inhibition (off-target kinases [1]; read-out: % Inhibition 2) of 64% and an inhibition (off-target kinases [1]; read-out: % Inhibition Avg) of 62%. For the same compound, the inhibition (off-target kinases [2]; read-out: % Inhibition 1) was 3%, the inhibition (off-target kinases [2]; read-out: % Inhibition 2) was 1% and the inhibition (off-target kinases [2]; read-out: % Inhibition Avg) was 2%. For the same compound, the inhibition at 1000 µM (off-target kinases [3]; read-out: % Inhibition 1) was 44%, the inhibition at 1000 µM (off-target kinases [3]; read-out: % Inhibition 2) was 49% and the inhibition at 1000 µM (off-target kinases [3]; read-out: % Inhibition Avg) was 46%. The inhibition (off-target kinases [4]; read-out: % Inhibition 1) was 61%, the inhibition (off-target kinases [4]; read-out: % Inhibition 2) was 48% and the inhibition (off-target kinases [4]; read-out: % Inhibition Avg) was 54%. The inhibition (off-target kinases [5]; read-out: % Inhibition 1) was 54%, the inhibition (off-target kinases [5]; read-out: % Inhibition 2) was 48% and the inhibition (off-target kinases [5]; read-out: % Inhibition Avg) was 51%. For the same compound, the “% Inhibition 1” value (off-target kinases [6]) was −5%, the “% Inhibition 2” value (off-target kinases [6]) was −4% and the “% Inhibition Avg” value (off-target kinases [6]) was −5%. It also gave an inhibition (off-target kinases [7]; read-out: % Inhibition 1) of 100%, an inhibition (off-target kinases [7]; read-out: % Inhibition 2) of 98% and an inhibition (off-target kinases [7]; read-out: % Inhibition Avg) of 99%. For the same compound, the inhibition (off-target kinases [8]; LRRK2, read-out: % Inhibition 1) was 99%, the inhibition (off-target kinases [8]; LRRK2, read-out: % Inhibition 2) was 100% and the inhibition (off-target kinases [8]; LRRK2, read-out: % Inhibition Avg) was 100%. It also gave an inhibition (off-target kinases [8]; LRRK2 FL, read-out: % Inhibition 1) of 98%, an inhibition (off-target kinases [8]; LRRK2 FL, read-out: % Inhibition 2) of 98% and an inhibition (off-target kinases [8]; LRRK2 FL, read-out: % Inhibition Avg) of 98%. The inhibition (off-target kinases [9]; read-out: % Inhibition 1) was 5%, the inhibition (off-target kinases [9]; read-out: % Inhibition 2) was 7% and the inhibition (off-target kinases [9]; read-out: % Inhibition Avg) was 6%. It also gave an inhibition (off-target kinases [10]; read-out: % Inhibition 1) of 4%, an inhibition (off-target kinases [10]; read-out: % Inhibition 2) of 4% and an inhibition (off-target kinases [10]; read-out: % Inhibition Avg) of 4%.
